The record followed here is a melting point compilation (Tetko et al.; mined from patent text by program, amines drawn as free bases though some values may be those of a salt).

A word on the melting point: it is the temperature, or range, at which the solid turns liquid.

For `COc1ccc(-c2cnc3[nH]c(=O)n(CC4CCCCC4)c3n2)cn1`, the melting point was in the range of 235 to 237 °C.

Compound `N#Cc1cnn(-c2ccc(Cl)c(Cl)c2Cl)c1N1CCCC1=O` had a melting point of 160 to 161 °C.

Turning to `CCCCCCSc1nnc(N)s1`, the melting point was 113 to 115 °C.

The compound `Cc1ccc(NS(=O)(=O)c2ccccc2)cc1` yielded a melting point of 118 to 119 °C.

For the compound `COC(=O)c1cc(I)cc(C)c1O`, the melting point fell in the range of 82 to 84 °C.

In turn, `COc1cccc(CS[C@H]2C[C@@H](C(N)=O)N(C)C2)c1` came in with a melting point of 113 to 114 °C.

For the compound `CCCCC(NC(=O)C(CC(C)C)NC(=O)COc1ccc2ccccc2c1)C(=O)CSCc1ccco1` (centres undefined), the melting point was in the range of 87 to 89 °C.

The compound `COC(=O)C(NS(=O)(=O)c1ccc(-c2ccc(NC(=O)c3oc4cccc(C(C)OC)c4c3C)cc2)cc1)C(C)C` (centres undefined) returned a melting point of 186 to 188 °C.

As to `CC(C)N(CCC(CCN(C)C)(C(N)=O)c1ccc(F)cc1)C(C)C` (centres undefined), the melting point was 78 to 80 °C.

The compound `Cc1c(O)c(C)c2nc(COc3ccc(CC4SC(=O)NC4=O)cc3)n(C)c2c1C` (centres undefined) gave a melting point of 240 to 244 °C.

In turn, `COc1ccccc1N1CCc2c1c1cccc(OC)c1[nH]c2=O` displayed a melting point of 185 to 188 °C.

The compound `CC(C)c1nccn1-c1ccc([N+](=O)[O-])cc1SC(Cl)(Cl)Cl` showed a melting point of 135 °C.

Take `Cc1ccc(-c2ccccc2C(=O)Nc2ccc(C(=O)N3C[C@@H]4C[C@@H](O)CN4c4ccccc43)cc2)cc1`: the melting point lay in the range of 163 to 164 °C.

The compound `CCNC(=O)NCCc1cccc(-c2nc(=O)c3ccccc3s2)n1` had a melting point of 240 to 242 °C.

As to `COc1cc(N)c(Cl)cc1C(=O)NC1CCN(CC2CCN(C(=O)N(C)C)CC2)CC1`, the melting point lay in the range of 124 to 126 °C.

As to `CCc1cc2ccccn2c1C(=O)c1ccc(O)cc1`, the melting point fell in the range of 179 to 180 °C.

The compound `C=CC[C@@H](CO)[C@@H](O)[C@H](O)C(=O)CO` returned a melting point of 112 to 113 °C.

In the case of `CN(C)CC1Cc2c(n(C)c3ccc(O)cc23)C1` (centres undefined), the melting point was 110 °C.

On to `COc1cc2c(C)c(C#N)c(SC)nc2cc1OC(C)=O`, for which the melting point lay in the range of 225 to 230 °C.

As for `COc1ccc(Cn2c(=O)n(C3OC(CO)C(O)C3O)c3nc(N)[nH]c(=O)c32)cc1` (centres undefined), the melting point is greater than 230 °C.

In turn, `Cc1cc(C)c(COc2cccnc2NC(=N)Nc2ccc(Cl)cc2)c(C)c1` registered a melting point of 169 to 171 °C.

Take `COc1noc2c(C)cc(C#CCCN3CCOC3=O)cc12`: the melting point is 94 to 95 °C.

`CCCOc1nc2ccsc2c(=O)n1CCC` displayed a melting point of 42 to 45 °C.

The compound `CCc1nn2c(-c3ccccc3)ccnc2c1C#N` had a melting point of 132 to 134 °C.

For the compound `COC(=O)C1(NC(=O)Cc2cc(-c3ccc(Cl)cc3)ccc2C)CCC(F)(F)CC1`, the melting point turned out to be 186 °C.

Regarding `O=C(O)C1C=Nc2c(cccc2[N+](=O)[O-])C1=O` (centres undefined), the melting point is 263 to 265 °C.

`O=[N+]([O-])c1cn2c(n1)OC[C@@H](OCc1ccc(Cl)nc1)C2` came in with a melting point of 191 to 193 °C.

Take `CNC(=O)C1CCN(Cc2cnc3cc(NC(=O)c4ccc(-c5ccc(F)cc5)cc4)c(C)cc3c2)CC1`: the melting point is 257 °C.

`Nc1ccc2c(c1)S(=O)(=O)NCCO2`: the melting point came to 179 °C.

Consider `CCN1c2cscc2C(=O)N(CCN(C)C)c2ccccc21`, for which the melting point was in the range of 75 to 77 °C.

In the case of `CC(C)(C)c1ccc2c(c1)C([Si](C)(C)C)c1cc(C(C)(C)C)ccc1-2`, the melting point lay in the range of 144 to 146 °C.

On to `O=CN(O)[C@@H](CCCO)CS(=O)(=O)c1ccc(Oc2ccc(OC(F)(F)F)cc2)cc1`, for which the melting point was in the range of 85 to 86 °C.

`O=C(O)c1ccc(C(=O)O)c(O)c1`: the melting point is greater than 300 °C.

The compound `COC(=N)c1nn(-c2c(Cl)cc(C(F)(F)F)cc2Cl)c(N)c1S(C)=O` (centres undefined) gave a melting point of 179 to 180 °C.

For the compound `Nn1c(=O)c2cc(F)c(S(=O)(O)=S)nc2n(C2CC2)c1=O`, the melting point lay within 167 to 169 °C.

`Cc1cc(S(C)(=O)=O)c(S(C)(=O)=O)cc1C(=O)N=C(N)N` showed a melting point greater than 240 °C.

For `O=C1CCC(c2ccccc2)(c2ccccc2)[C@@H]2CN(C(=O)Cc3ccccc3Br)C[C@H]12` (racemic), the melting point amounted to 217 °C.

In turn, `COc1cc2c(c(OC)c1OC)CCN(c1nc(N)c3cc(OC)c(OC)c(OC)c3n1)C2` returned a melting point of 193 to 195 °C.

`CCCCCCCCCCCCCCCCCC(O)c1ccc(O)c(C(=O)O)c1` (centres undefined): the melting point amounted to 102 °C.

Take `CC(=O)C(=CS(=O)(=O)N(C)C)c1cccc([N+](=O)[O-])c1`: the melting point lay within 115 to 120 °C.

`O=C(CCCC(Cc1cccc2ccccc12)C(=O)O)c1ccccc1` (centres undefined) yielded a melting point of 134 to 136 °C.

`COC(=O)C1Cc2c([nH]c3ccccc23)C(c2cc(OC)ccc2OC)N1C(=O)CCl` (centres undefined) returned a melting point of 108 to 111 °C.

Turning to `COc1ccc2c(c1)c(Cc1cc(=O)n(-c3ccc(C(F)(F)F)cc3)[nH]1)c(C)n2C(=O)c1ccc(Cl)cc1`, the melting point was in the range of 180 to 182 °C.

In turn, `CC(C)Cc1csc2[nH]c(=O)c(=O)[nH]c12` had a melting point greater than 270 °C.

`CNc1nc(-c2ccc(OCc3ccccc3)cc2)no1` displayed a melting point of 148 to 150 °C.

Compound `O=S(=O)(c1cccc(-c2cccc(-c3nc(-c4ccc(C(F)(F)F)cc4)cc(C(F)(F)F)n3)c2)c1)N(CCO)CCO` displayed a melting point of 112 °C.

As for `O=C(O)CCCCCNC(=NC(=O)OCc1ccccc1)NC(=O)OCc1ccccc1`, the melting point came to 93 °C.

As for `COC1=C(OC)C(=O)C(CCCCCCCCCC(=O)O)=C(C)C1=O`, the melting point is 59 to 60 °C.

Compound `O=C(C1=NCCCCCN1)c1ccccc1` had a melting point of 70 to 71 °C.

Regarding `Cn1cc(-c2cccc(N3Cc4cc(C(C)(C)C)ccc4C3=O)c2CO)nc(Nc2cnn(C3CC3)c2)c1=O`, the melting point lay within 218 to 219 °C.

Compound `CC(C)C(NC(=O)OCC1c2ccccc2-c2ccccc21)C(=O)Nc1n[nH]c(=S)s1` (centres undefined) had a melting point of 141 to 144 °C.

Regarding `O=C1c2cccc(NCc3ccccc3)c2C(=O)c2cccc(NCc3ccccc3)c21`, the melting point lay within 218 to 220 °C.

`C=CCc1cc(C=CC(=O)O)ccc1OC(C)=O` yielded a melting point of 143 to 144 °C.

As to `CCCCc1oc2ccccc2c1-c1ncc(-c2ccc3c(Br)c(OCc4ccc(C(=O)OC)cc4)ccc3c2)o1`, the melting point fell in the range of 143 to 145 °C.

Turning to `O=[N+]([O-])c1ccc(CS(=O)(=O)CCO)cc1CS(=O)(=O)CCO`, the melting point fell in the range of 211 to 212 °C.

Turning to `CC12CC(=O)C3C(CCC4CC5OC5CC43C)C1CCC2C#N` (centres undefined), the melting point is 206 to 208 °C.

As to `N#CCCNC(=O)c1cccc(-c2cccc3oc(Cc4cccc(C(F)(F)F)c4)cc23)c1`, the melting point is 107 to 108 °C.

With `CCCCOc1ccc(Cc2nn(-c3ccccc3Cl)c(=O)o2)cc1`, the melting point is 63 °C.

With `C=CCN(C)c1nc(Cc2ccc(OC)c(OC)c2)nc2sc(C#N)c(C)c12`, the melting point lay within 98 to 100 °C.

In turn, `CC(=O)N(Cc1cccs1)C1(c2ccc(Cl)cc2)CCC1` had a melting point of 105 to 108 °C.

`CN1CC2CCCCC2C1c1noc(=O)[nH]1` (centres undefined): the melting point lay within 102 to 104 °C.

In turn, `Cc1ccc(N2CC(=O)N(C)C(=O)N2)cc1` returned a melting point of 193 to 194 °C.

Regarding `CC(O)(CN)c1ccc(Oc2ccc3c(c2)S(=O)(=O)NC2CCCN32)cc1` (centres undefined), the melting point was 76 to 78 °C.

In the case of `CNCC(O)c1ccc(Cl)cc1` (centres undefined), the melting point lay in the range of 84 to 86 °C.

On to `O=C1c2cc(Cl)c(Cl)cc2CN2C(=NO)CCC12` (centres undefined), for which the melting point lay within 245 to 246 °C.

Compound `COc1cc2c(Nc3ccc(Cl)cc3F)ncnc2cc1OCCNC(=O)OC(C)(C)C` returned a melting point of 190 to 191 °C.

The compound `O=C1Nc2c(ccc3c2CCNC3)C1=O` came in with a melting point of 270 °C.

The compound `CC(C)n1nc(-c2sc(NC(=O)CCNCc3ccccn3)nc2-c2ccccc2)ccc1=O` gave a melting point of 200 to 201 °C.

As to `O=C(NC1CCCCC1)NS(=O)(=O)c1ccc(CCNC(=O)N2Cc3ccccc3C2=O)cc1`, the melting point was 211 to 213 °C.

For the compound `COC(=O)Cn1c(C(=O)NC(N)=S)cc2cc(C)cc(C)c21`, the melting point is 226 to 231 °C.

Consider `CCOc1cc2c(cc1OCC)C(C(C#N)SCCCO)=NCC2` (centres undefined), for which the melting point lay in the range of 100 to 105 °C.

Compound `O=C(C=Cc1ccc(C(F)(F)F)cc1)N1CCc2c([nH]c3ccccc23)C1c1ccccc1` (centres undefined) displayed a melting point of 211 °C.

Compound `CC(C)(C)OC(=O)C=Cc1cnc2ccccc2c1` registered a melting point of 128 to 129 °C.

Turning to `Cc1cc(C)cc(SCCC(=O)O)c1`, the melting point is 69 to 70 °C.

With `C[Si](C)(Cc1ccccc1)CN1C(=O)c2ccccc2C1=O`, the melting point is 91 to 92 °C.

On to `NC(CO)(CO)CCCCCCCCCCCCCc1ccccc1`, for which the melting point is 61 to 64 °C.

As to `CCOc1cc2nc(S(C)(=O)=O)[nH]c2cc1OCC`, the melting point was in the range of 182 to 184 °C.

`COc1cc2ncc(N3C(=O)C4CCC3CC4)nc2cc1OC`: the melting point lay within 158 to 159 °C.

`CC(C)(C)OC(=O)N1CCCC(C(=O)OCC(=O)C(C)(C)C)(C(=O)OCc2ccccc2)C1` (centres undefined) yielded a melting point of 60 °C.

Compound `C=C(C)CNc1cc(C)nc2cn[nH]c12` showed a melting point of 161 to 164 °C.

`CCOC(=O)C1=Cc2cc(S(=O)(=O)Cl)ccc2OC1C(F)(F)F` (centres undefined): the melting point is 97.2 to 98.4 °C.

`Cc1ccccc1NC(=O)CN1C[C@@H](C)N(S(=O)(=O)c2cccc(C#N)c2)[C@@H](C)C1` returned a melting point of 152 to 153 °C.

`Cc1ccc2ncn(C3CCC(=O)NC3=O)c(=O)c2c1` (centres undefined) gave a melting point of 285 to 287 °C.

`Cc1cc(C)c2nc(CO)[nH]c2n1` displayed a melting point of 244 to 246 °C.

As to `Cc1ccc(S(=O)(=O)Nc2nc(-c3cc(F)cc(C(F)(F)F)c3)cs2)cc1`, the melting point is 123 to 125 °C.

Take `CCc1cn(C)c(C2Cc3ccccc3N2C(C)=O)n1` (centres undefined): the melting point is 105 to 106 °C.

`Cc1cn2nc(S(=O)(=O)Cl)nc2nc1C` gave a melting point of 116 to 120 °C.

In turn, `Cc1ccc(C(=O)c2ccc(CC(=O)O)n2C)s1` returned a melting point of 152 to 154 °C.

The compound `CCOC(=O)C1=C(N)NC(N)=C(C(=O)OCC)C1c1cccc(C#N)c1` returned a melting point of 176 °C.
